Read-outs that look alike come from different tables or passages of the source.
Legend:
Test in all cases: CellTiter-Glo, hematologic malignancy panel
Type in all cases: cell-based
[1] = tested on: KM-H2; conditions: HL; for GI50: Homo sapiens
Source text: (§1) Identification of tumor types that are the most sensitive to the KSP inhibitors of the present invention can be accomplished using an unbiased approach that uses several cell-based assays. The assays chosen were as follows: • CellTiter-Glo®. This is an assay designed to measure ATP concentration in a cell culture, and can be correlated to cell number. Briefly CellTiter-Glo® (Promega Corporation) is a homogeneous method using the single CellTiter-Glo® reagent to detect ATP wherein ATP in the assay drives the activity of a thermostable luciferase to create a luminescent signal which can then be measured and correlated with the number of viable cells. Briefly, for adherent cells, 1,000 to 5,000 cells/well were plated in 96-well plates (100 μl/well) and let to adhere for 24 hours before being treated with drug. For non-adherent cells, 1,000 to 10,000 cells/well were plated in 96-well plates (100 μl/well) and immediately treated with drug. Drug dilutions were prepared in DMSO at 1000 times the final concentration. These dilutions were then diluted 1/100 in growth media before being added to the cells (11 μl/well) to achieve the desired final concentration. After 48 h in a 37° C. tissue culture incubator, the plates were processed for the CellTiter-Glo®assay according to the manufacturer's instructions. Protocol for a 72 hour cell proliferation assay: The 72 hour assay was performed the same way as the 48 hour assay except for the following modifications: For adherent cells, 500 to 5,000 cells/well were plated in 96-well plates (90 μl/well cell growth media) and left to adhere for 24 hours before being treated with drug. For non-adherent cells, 1,000 to 10,000 cells/well were plated in 96-well plates (90 μl/well cell growth media) and immediately treated with drug. Data values presented represent the concentration of test compound required for a 50% reduction in growth. • LDH release. The Cytotoxicity Detection KitPLUS (LDH) assay (Roche Diagnostics, Manheim, Germany) measures the amount of LDH released in the media by dying cells; LDH catalyzes the conversion of lactate into pyruvate. The enzymatic reaction is coupled to a chemical reaction that uses a tetrazolium salt to form a formazan that is red and can be detected by its absorbance at 490 nm. This assay measures the amount of cell death after drug treatment. Cells were plated at 10,000 cells/well in 96-well plates (100 μl/well). Adherent cells were let to adhere for 24 hours before being treated with drug, whereas non-adherent cells were immediately treated with drug. Drug dilutions were prepared in DMSO at 1000 times the final concentration. These dilutions were then diluted 1/100 in growth media before being added to the cells (11 μl/well) to achieve the desired final concentration. After 48 h in a 37° C. tissue culture incubator, the plates were processed for the Cytotoxicity Detection KitPLUS (LDH) assay according to the manufacturer's instructions. The media only values were subtracted from all the data points before analysis. Data values presented correspond to the compound concentration wherein LDH output is at half maximal level. • Caspase-Glo® 3/7. The Caspase-Glo® 3/7 Assay (Promega Corporation) is a homogeneous luminescent assay that measures caspase-3/7 activities. The assay provides a proluminescent caspase-3/7 DEVD-aminoluciferin substrate and a thermostable luciferase in a reagent optimized for caspase-3/7 activity, luciferase activity and cell lysis. Adding the single Caspase-Glo® 3/7 Reagent results in cell lysis, followed by caspase cleavage of the substrate. This liberates free aminoluciferin, which is consumed by the luciferase, generating a luminescent signal. The signal is proportional to caspase-3/7 activity. Data values presented correspond to the compound concentration wherein caspase 3/7 activity is at half maximal level. […]

[2] = tested on: SET-2; conditions: AML; for GI50: Homo sapiens
Source text: as §1

[3] = tested on: SUDHL-4; conditions: for GI50: Homo sapiens, SU-DHL-4, NHL
Source text: as §1

[4] = tested on: KMS26; conditions: for GI50: KMS-26, MM
Source text: as §1

[5] = tested on: H929; conditions: for GI50: Homo sapiens, NCI-H929, MM
Source text: as §1

[6] = tested on: KMS18-Luc; conditions: MM
Source text: as §1

[7] = tested on: LP1; conditions: for GI50: Homo sapiens, LP-1, MM
Source text: as §1

[8] = tested on: RPMI-8226; conditions: MM; for GI50: Homo sapiens
Source text: as §1

[9] = tested on: U937; conditions: for GI50: Homo sapiens, U-937, NHL
Source text: as §1

[10] = tested on: Kasumi-1; conditions: AML; for GI50: Homo sapiens
Source text: as §1

[11] = GI50 in nM, read-out: Log(GI50) (converted)

Question: Which “Differential vs mean Log(GI50)” value [1] does the source give for `CC(C)(C)[C@H](c1nc(-c2cc(F)ccc2F)cn1Cc1ccccc1)N(CC[C@H](N)CF)C(=O)CO` [Compound IIa] here?
Answer: Its value is 0.162.

Question: And the GI50 [1, 11]?
Answer: Its GI50 is 0.233 nM.

Question: What about the GI50 ([1]; read-out: GI50) of the same molecule?
Answer: Its GI50 is 0.23 nM.

Question: And the “Differential vs mean Log(GI50)” value [2]?
Answer: The value was −0.001.

Question: And the GI50 [2, 11]?
Answer: Its GI50 is 0.34 nM.

Question: And the GI50 ([2]; read-out: GI50)?
Answer: Its GI50 is 0.34 nM.

Question: And the GI50 [3, 11]?
Answer: Its GI50 is 0.447 nM.

Question: And the GI50 ([3]; read-out: GI50)?
Answer: The GI50 was 0.45 nM.

Question: And the “Differential vs mean Log(GI50)” value ([3]; NHL)?
Answer: The value was −0.120.

Question: What about the GI50 [4, 11] of the same molecule?
Answer: The GI50 was 0.24 nM.

Question: And the GI50 ([4]; read-out: GI50)?
Answer: The GI50 was 0.24 nM.

Question: What about the “Differential vs mean Log(GI50)” value ([4]; MM) of the same molecule?
Answer: Its value is 0.150.

Question: What about the GI50 [5, 11] of the same molecule?
Answer: Its GI50 is 0.335 nM.

Question: What about the GI50 ([5]; read-out: GI50) of the same molecule?
Answer: The GI50 was 0.34 nM.

Question: And the “Differential vs mean Log(GI50)” value ([5]; MM)?
Answer: Its value is 0.005.

Question: What about the “Differential vs mean Log(GI50)” value [6] of the same molecule?
Answer: Its value is −0.184.

Question: What about the GI50 [6, 11] of the same molecule?
Answer: The GI50 was 0.518 nM.

Question: What about the GI50 ([6]; read-out: GI50) of the same molecule?
Answer: The GI50 was 0.52 nM.

Question: What about the GI50 [7, 11] of the same molecule?
Answer: The GI50 was 0.205 nM.

Question: And the GI50 ([7]; read-out: GI50)?
Answer: The GI50 was 0.21 nM.

Question: And the “Differential vs mean Log(GI50)” value ([7]; MM)?
Answer: The value was 0.218.

Question: And the GI50 [8, 11]?
Answer: The GI50 was 0.262 nM.

Question: What about the GI50 ([8]; read-out: GI50) of the same molecule?
Answer: Its GI50 is 0.26 nM.

Question: What about the “Differential vs mean Log(GI50)” value [8] of the same molecule?
Answer: Its value is 0.112.

Question: And the GI50 [9, 11]?
Answer: The GI50 was 0.2 nM.

Question: And the GI50 ([9]; read-out: GI50)?
Answer: The GI50 was 0.2 nM.

Question: What about the “Differential vs mean Log(GI50)” value ([9]; NHL) of the same molecule?
Answer: The value was 0.229.

Question: And the “Differential vs mean Log(GI50)” value [10]?
Answer: Its value is −0.113.

Question: What about the GI50 [10, 11] of the same molecule?
Answer: Its GI50 is 0.44 nM.

Question: And the GI50 ([10]; read-out: GI50)?
Answer: Its GI50 is 0.44 nM.
